Tests used:
[1] = test system: normal human peripheral blood mononuclear cells (PBMC); assay: Inhibition of normal human lymphoproliferative responses to a panel of mitogens and soluble antigens (3H-thymidine uptake); assay type: cell-based; conditions: 0.5% plasma; for 3H-thymidine uptake: mean of triplicate cultures
[2] = test system: normal human peripheral blood mononuclear cells (PBMC); assay type: cell-based; conditions: for IC90: tetanus toxoid, 2-3 separate experiments/ganglioside, read-out: ID90 (ganglioside concentration required to cause 90% inhibition of the lymphoproliferative response)
[3] = Candida Antigen, ganglioside 2.5 μM
[4] = Candida Antigen, ganglioside 10 μM
[5] = Diptheria Toxoid, ganglioside 2.5 μM
[6] = Diptheria Toxoid, ganglioside 10 μM
[7] = Tetanus Toxoid, ganglioside 10 μM

For GD1a, the “% inhibition” value [1, 3] was 45%, the 3H-thymidine uptake [1, 3] was 3.2 net cpm and the “% inhibition” value [1, 4] was 84%. The 3H-thymidine uptake [1, 4] was 0.9 net cpm, the “% inhibition” value ([1]; ConA, ganglioside 2.5 μM) was 0% and the 3H-thymidine uptake ([1]; ConA, ganglioside 2.5 μM) was 84.3 net cpm. The “% inhibition” value ([1]; ConA, ganglioside 10 μM) was 37%, the 3H-thymidine uptake ([1]; ConA, ganglioside 10 μM) was 49.0 net cpm and the “% inhibition” value [1, 5] was 60%. For the same substance, the 3H-thymidine uptake [1, 5] was 2.1 net cpm, the “% inhibition” value [1, 6] was 85% and the 3H-thymidine uptake [1, 6] was 0.8 net cpm. The “% inhibition” value ([1]; PHA, ganglioside 2.5 μM) was 3%, the 3H-thymidine uptake ([1]; PHA, ganglioside 2.5 μM) was 75.4 net cpm and the “% inhibition” value ([1]; PHA, ganglioside 10 μM) was 11%. For the same substance, the 3H-thymidine uptake ([1]; PHA, ganglioside 10 μM) was 69.2 net cpm, the “% inhibition” value ([1]; PWM, ganglioside 2.5 μM) was 7% and the 3H-thymidine uptake ([1]; PWM, ganglioside 2.5 μM) was 13.0 net cpm. The “% inhibition” value ([1]; PWM, ganglioside 10 μM) was 68%, the 3H-thymidine uptake ([1]; PWM, ganglioside 10 μM) was 4.5 net cpm and the 3H-thymidine uptake ([1]; Tetanus Toxoid, ganglioside 2.5 μM) was 8.8 net cpm. The “% inhibition” value [1, 7] was 88%, the 3H-thymidine uptake [1, 7] was 3.2 net cpm and the IC90 [2] was 2.3 µM.

With GD1b the IC90 [2] was 4.5 µM.

GT1b gave an IC90 [2] of 2.8 µM.

In the case of asialo-GM1 [reference compound], the “immunosuppressive activity (in words)” value [2] is reported as “does not substantially alter activity”.

“galactosylceramide [asialo-GM4, reference compound]” gave an IC50 ([2]; tetanus toxoid-induced lymphoproliferation, read-out: ID50 (the source's name)) of 13 µM.

With sialosylceramide [GM5] the “predicted immunosuppressive activity (in words)” value ([2]; inferred from Table 2 trend) was “very active as an immunosuppressant”.

From US6326361A, “Gangliosides with immunosuppressive activity” (The Regents of the University of California, priority 1993, dated 2001)
